Where two headings read alike, the source gives them in different places.
What was measured:
[1] = biological target: T1, complement C5a receptor 1 (C5aR1) (Homo sapiens, UniProt P21730); assay: β-arrestin recruitment via C5aR1 activation in live CHO-K1 cells (PathHunter), antagonist mode; assay type: cell-based; settings: antagonist mode; recombinant hC5a (EC90) as competing natural agonist; live CHO-K1 cells; read-out: [Antagonist] B-arrestin2 recruitment: Average IC50
T1 construct: β-galactosidase fragment (PathHunter enzyme complementation); host or cells: CHO-K1 (PathHunter CHO-K1 C5aR1 β-arrestin cell line)
T1 sequence (P21730 1-350): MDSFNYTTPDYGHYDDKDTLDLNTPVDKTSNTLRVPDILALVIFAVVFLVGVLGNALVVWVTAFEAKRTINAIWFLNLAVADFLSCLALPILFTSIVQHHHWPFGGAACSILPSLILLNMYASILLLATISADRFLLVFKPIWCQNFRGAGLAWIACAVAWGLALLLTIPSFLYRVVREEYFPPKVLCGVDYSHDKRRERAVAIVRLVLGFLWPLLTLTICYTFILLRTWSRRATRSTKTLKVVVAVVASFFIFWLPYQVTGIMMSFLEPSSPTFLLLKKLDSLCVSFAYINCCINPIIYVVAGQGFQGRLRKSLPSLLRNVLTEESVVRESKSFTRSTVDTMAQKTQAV
Outline: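 Live CHO-K1 cells carry two galactosidase enzyme fragments, one fused to β-arrestin and one to C5aR1, so that β-arrestin recruitment restores enzyme activity. Agonist mode tests compounds alone. Antagonist mode tests them against recombinant hC5a at EC90, and IC50 values are reported in binned ranges.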

[2] = biological target: T1, complement C5a receptor 1 (C5aR1); assay: β-arrestin recruitment via C5aR1 activation in live CHO-K1 cells (PathHunter), agonist mode; assay type: cell-based
Protocol: Exemplary compounds were evaluated for classical GPCR β-arrestin recruitment via complement C5a receptor 1 (C5aR1) activation in live CHO-K1 cells. This cell line expresses two fragments of the […] protein coupled to β-arrestin and C5aR1. Complementation of the two fragments allows for the assessment of both C5aR1 agonism and antagonism. Recombinant hC5a (EC90) was used as the competing natural agonist against disclosed compounds (more information on the expanded protocol and cell line can be found on the manufacturer's website: PathHunter® CHO-K1 C5aR1 β-arrestin cell line, DiscoverX, Catalog No. 93-0557C2). […] IC50 ranges: A: IC50≤500 nM; B: 500 nM<IC50≤5 uM; C: 5 uM<IC50≤100 uM; D: IC50>100 uM.

SMILES	IC50 [1]	[Agonist] B-arrestin2 recruitment: Average EC50 (nM) [2]	[Agonist] B-arrestin2 recruitment: Average EC50 (nM) ([2]; at 10 μM)
Cc1cnc2cc(C3CCN(c4c(C)cccc4F)CC3)c(=O)n([C@@H]3CCC(F)(F)c4nccnc43)c2n1 [149A, (R)-5-(8,8-Difluoro-5,6,7,8-tetrahydroquinoxalin-5-yl)-7-(1-(2-fluoro-6-methylphenyl)piperidin-4-yl)-3-methylpyrido[2,3-b]pyrazin-6(5H)-one]	5 to 100 µM	Non-Active	–
Cc1cnc2cc(C3CCN(c4c(C)cccc4F)CC3)c(=O)n([C@H]3CCC(F)(F)c4nccnc43)c2n1 [149B, (S)-5-(8,8-Difluoro-5,6,7,8-tetrahydroquinoxalin-5-yl)-7-(1-(2-fluoro-6-methylphenyl)piperidin-4-yl)-3-methylpyrido[2,3-b]pyrazin-6(5H)-one]	< 0.5 µM	Non-Active	–
Cc1cnc2cc([C@H]3CC[C@@H](c4cnccc4C(F)(F)F)CC3)c(=O)n(Cc3ncccc3C(F)(F)F)c2n1 [150A, 3-Methyl-5-((3-(trifluoromethyl)pyridin-2-yl)methyl)-7-((1s,4s)-4-(4-(trifluoromethyl)pyridin-3-yl)cyclohexyl)pyrido[2,3-b]pyrazin-6(5H)-one]	< 0.5 µM	–	Non-Active at 10 μM
Cc1cnc2cc([C@H]3CC[C@H](c4cnccc4C(F)(F)F)CC3)c(=O)n(Cc3ncccc3C(F)(F)F)c2n1 [150B, 3-Methyl-5-((3-(trifluoromethyl)pyridin-2-yl)methyl)-7-((1r,4r)-4-(4-(trifluoromethyl)pyridin-3-yl)cyclohexyl)pyrido[2,3-b]pyrazin-6(5H)-one]	< 0.5 µM	Non-Active	–
Cc1cccc(F)c1N1CCC(c2cc3nccnc3n([C@H]3CCc4nccnc43)c2=O)CC1 [160A, (S)-5-(6,7-Dihydro-5H-cyclopenta[b]pyrazin-5-yl)-7-(1-(2-fluoro-6-methylphenyl)piperidin-4-yl)pyrido[2,3-b]pyrazin-6(5H)-one]	5 to 100 µM	–	Non-Active at 10 μM
Cc1cccc(F)c1N1CCC(c2cc3nccnc3n([C@@H]3CCc4nccnc43)c2=O)CC1 [160B, (R)-5-(6,7-Dihydro-5H-cyclopenta[b]pyrazin-5-yl)-7-(1-(2-fluoro-6-methylphenyl)piperidin-4-yl)pyrido[2,3-b]pyrazin-6(5H)-one]	5 to 100 µM	–	Non-Active at 10 μM
Cc1cnc2cc(N3CCN(c4c(C)cccc4F)CC3)c(=O)n(Cc3nccnc3OC(F)F)c2n1 [161A, 5-((3-(Difluoromethoxy)pyrazin-2-yl)methyl)-7-(4-(2-fluoro-6-methylphenyl)piperazin-1-yl)-3-methylpyrido[2,3-b]pyrazin-6(5H)-one]	0.5 to 5 µM	–	Non-Active at 10 μM
Cc1cnc2cc(N3CCN(c4c(C)cccc4F)CC3)c(=O)n(Cc3nccn(C(F)F)c3=O)c2n1 [161B, 5-((4-(Difluoromethyl)-3-oxo-3,4-dihydropyrazin-2-yl)methyl)-7-(4-(2-fluoro-6-methylphenyl)piperazin-1-yl)-3-methylpyrido[2,3-b]pyrazin-6(5H)-one]	5 to 100 µM	–	Non-Active at 10 μM
Cc1cnc2cc([C@H]3CC[C@@H](c4c(C)cccc4F)CC3)c(=O)n(Cc3nccnc3OC(F)F)c2n1 [168A, 5-((3-(Difluoromethoxy)pyrazin-2-yl)methyl)-7-((1s,4s)-4-(2-fluoro-6-methylphenyl)cyclohexyl)-3-methylpyrido[2,3-b]pyrazin-6(5H)-one]	0.5 to 5 µM	–	Non-Active at 10 μM
Cc1cnc2cc([C@H]3CC[C@H](c4c(C)cccc4F)CC3)c(=O)n(Cc3nccnc3OC(F)F)c2n1 [168B, 5-((3-(Difluoromethoxy)pyrazin-2-yl)methyl)-7-((1r,4r)-4-(2-fluoro-6-methylphenyl)cyclohexyl)-3-methylpyrido[2,3-b]pyrazin-6(5H)-one]	< 0.5 µM	–	Non-Active at 10 μM
Cc1cnc2cc([C@H]3CC[C@@H](c4c(C)cccc4F)C3)c(=O)n(Cc3ncccc3C(F)(F)F)c2n1 [171A, 7-((1S,3R)-3-(2-Fluoro-6-methylphenyl)cyclopentyl)-3-methyl-5-((3-(trifluoromethyl)pyridin-2-yl)methyl)pyrido[2,3-b]pyrazin-6(5H)-one]	< 0.5 µM	–	Non-Active at 10 μM
Cc1cnc2cc([C@@H]3CC[C@H](c4c(C)cccc4F)C3)c(=O)n(Cc3ncccc3C(F)(F)F)c2n1 [171B, 7-((1R,3S)-3-(2-Fluoro-6-methylphenyl)cyclopentyl)-3-methyl-5-((3-(trifluoromethyl)pyridin-2-yl)methyl)pyrido[2,3-b]pyrazin-6(5H)-one]	< 0.5 µM	–	Non-Active at 10 μM
Cc1cnc2cc([C@H]3CC[C@H](c4c(C)cccc4F)C3)c(=O)n(Cc3ncccc3C(F)(F)F)c2n1 [171C, 7-((1S,3S)-3-(2-Fluoro-6-methylphenyl)cyclopentyl)-3-methyl-5-((3-(trifluoromethyl)pyridin-2-yl)methyl)pyrido[2,3-b]pyrazin-6(5H)-one]	< 0.5 µM	Non-Active	–
Cc1cnc2cc([C@@H]3CC[C@@H](c4c(C)cccc4F)C3)c(=O)n(Cc3ncccc3C(F)(F)F)c2n1 [171D, 7-((1R,3R)-3-(2-Fluoro-6-methylphenyl)cyclopentyl)-3-methyl-5-((3-(trifluoromethyl)pyridin-2-yl)methyl)pyrido[2,3-b]pyrazin-6(5H)-one]	0.5 to 5 µM	–	Non-Active at 10 μM
Cc1cnc2cc([C@H]3CC[C@@H](c4c(C)cccc4F)C3)c(=O)n(Cc3nccnc3C)c2n1 [172A, 7-((1S,3R)-3-(2-Fluoro-6-methylphenyl)cyclopentyl)-3-methyl-5-((3-methylpyrazin-2-yl)methyl)pyrido[2,3-b]pyrazin-6(5H)-one]	0.5 to 5 µM	–	Non-Active at 10 μM
Cc1cnc2cc([C@@H]3CC[C@H](c4c(C)cccc4F)C3)c(=O)n(Cc3nccnc3C)c2n1 [172B, 7-((1R,3S)-3-(2-Fluoro-6-methylphenyl)cyclopentyl)-3-methyl-5-((3-methylpyrazin-2-yl)methyl)pyrido[2,3-b]pyrazin-6(5H)-one]	0.5 to 5 µM	–	Non-Active at 10 μM
Cc1cnc2cc([C@H]3CC[C@H](c4c(C)cccc4F)C3)c(=O)n(Cc3nccnc3C)c2n1 [172C, 7-((1S,3S)-3-(2-Fluoro-6-methylphenyl)cyclopentyl)-3-methyl-5-((3-methylpyrazin-2-yl)methyl)pyrido[2,3-b]pyrazin-6(5H)-one]	< 0.5 µM	–	Non-Active at 10 μM
Cc1cnc2cc([C@@H]3CC[C@@H](c4c(C)cccc4F)C3)c(=O)n(Cc3nccnc3C)c2n1 [172D, 7-((1R,3R)-3-(2-Fluoro-6-methylphenyl)cyclopentyl)-3-methyl-5-((3-methylpyrazin-2-yl)methyl)pyrido[2,3-b]pyrazin-6(5H)-one]	5 to 100 µM	–	Non-Active at 10 μM
Cc1cnc2cc([C@H]3CC[C@H](c4c(C)cccc4F)CC3)c(=O)n([C@H]3CCC(F)(F)c4nccnc43)c2n1 [174A, 5-((S)-8,8-Difluoro-5,6,7,8-tetrahydroquinoxalin-5-yl)-7-((1r,4S)-4-(2-fluoro-6-methylphenyl)cyclohexyl)-3-methylpyrido[2,3-b]pyrazin-6(5H)-one]	5 to 100 µM	–	Non-Active at 10 μM
Cc1cnc2cc([C@H]3CC[C@H](c4c(C)cccc4F)CC3)c(=O)n([C@@H]3CCC(F)(F)c4nccnc43)c2n1 [174B, 5-((R)-8,8-Difluoro-5,6,7,8-tetrahydroquinoxalin-5-yl)-7-((1r,4R)-4-(2-fluoro-6-methylphenyl)cyclohexyl)-3-methylpyrido[2,3-b]pyrazin-6(5H)-one]	0.5 to 5 µM	–	Non-Active at 10 μM
Cc1cnc2cc([C@H]3CC[C@@H](c4c(C)cccc4F)C3)c(=O)n(Cc3ncccc3OC(F)F)c2n1 [175A, 5-((3-(Difluoromethoxy)pyridin-2-yl)methyl)-7-((1S,3R)-3-(2-fluoro-6-methylphenyl)cyclopentyl)-3-methylpyrido[2,3-b]pyrazin-6(5H)-one]	< 0.5 µM	Non-Active	–
Cc1cnc2cc([C@@H]3CC[C@H](c4c(C)cccc4F)C3)c(=O)n(Cc3ncccc3OC(F)F)c2n1 [175B, 5-((3-(Difluoromethoxy)pyridin-2-yl)methyl)-7-((1R,3S)-3-(2-fluoro-6-methylphenyl)cyclopentyl)-3-methylpyrido[2,3-b]pyrazin-6(5H)-one]	< 0.5 µM	–	Non-Active at 10 μM
